This note sets out measurements from US11123353B2 (Zhejiang Chinese Medical University, priority 2019, dated 2021).

Each structure is given as a SMILES string. Several values for one entry are separate records, joined by “and”; a condition that tells them apart may be missing. Equal values may be shown once.

The test system of data set [1] is PC-9/GR tumor-bearing nude mouse model. Briefly: In vivo fluorescence imaging targeting test (DiR). Also noted: species or system nude mice. Particulars: DiR 7.5 μg·mL^−1, 0.2 mL tail vein, within 24 h. How it is done:
The nude mice with a body mass of approximately 25 g in the established PC-9/GR tumor-bearing nude mouse model were taken, and respectively injected with 0.2 mL of a DiR raw medicine, and DiR-coated RGD/R8-ERG/GEF-LIP and RGD/R8-ERG/GEF-LIP freeze-dried powder (DiR concentration: 7.5 μg·mL^−1) by tail vein injection, the nude mice were anesthetized with isoflurane at different time points, and placed in an in vivo imager to observe the distribution of liposome in vivo (Ex=748 nm, Em=780 nm, and exposure time: 2 s). After 24 h, after the last in vivo imaging was finished, the nude mice were killed, and the heart, liver, spleen, lung, kidney and tumor were taken out and placed in the in vivo imager to observe the distribution of liposome in the in vitro tissues. […] It is speculated that the particle size of freeze-dried powder is smaller than that of RGD/R8-ERG/GEF-LIP, which increases the probability of entering the tumor cells to a certain extent and increases the tumor targeting effect in vivo.

For a further data set, the system named is PC-9 cells. Briefly: Cell cycle by PI flow cytometry, PC-9 cells. Particulars: PC-9, 48 h. In kind it is cell-based, human. How it is done: (§1) The number of cells in logarithmic growth phase was adjusted to 1.5×10^5·mL^−1, the cells were inoculated into a 6-well culture plate, and cultured in a 37° C. 5% CO2 incubator until 80% of the cells were fused and then a drug was added for treatment. […] After the drug acted for 48 h, a supernatant and cells were collected, centrifuged at 800 rpm·min^−1 for 10 min, washed once with PBS and fixed overnight with 75% ice ethanol, ethanol was discarded by centrifuging, and the cells were washed twice with PBS. The PBS was discarded, each sample was added with 0.5 ml of a PI staining solution to stain for 15 min at room temperature in the dark, and placed on a flow cytometer for measuring the proportion of cells in each cycle. The experiment was repeated 3 times.
[…]. Other operations were the same as above.
(In general: In flow cytometry, cells or beads pass a laser one at a time.)

In a further data set the test system is A549 cells. The experiment in a line: Cell cycle by PI flow cytometry, A549 cells. In kind it is cell-based, human. Conditions: A549, 48 h. As to the method: as §1
For data set [2], the system named is PC-9/GR lung cancer xenografts. Briefly: Preliminary pharmacodynamic test in PC-9/GR tumor-bearing nude mice. In kind it is in vivo, BABL/C nude mouse.
Description: A PC-9/GR lung cancer cell line was digested from a culture flask, and then resuspended in 0.9% normal saline, and the cell concentration was adjusted to 2.5×10^7·mL^−1 and the cell was inoculated into the left axilla of BABL/C nude mouse. Each nude mouse was inoculated with 0.2 mL of a cell suspension.
The nude mice in each group were administered by tail vein injection.
After starting administration, the body mass of the nude mouse was regularly measured once, and the longest and shortest diameters of the tumor were measured with a vernier caliper to calculate the volume of the tumor. After consecutively administrating 7 times, the tumor volume of each group was measured and the tumor inhibitory rate of each administration group was calculated. Tumor volume (mm^3)=½×Long diameter (mm)×Short diameter (mm)^2
Tumor inhibitory rate (%)=(Average tumor weight of model control group (mg)—Average tumor weight of administration group (mg))/Average tumor weight of model control group (mg)×100%
A short description of data set [3]: In vitro release of GEF by dialysis in different pH release media. In kind it is physicochemical. Particulars: for cumulative release percentage of GEF: 37° C., listed as GEF raw medicine. How it is done:
Due to its high lipid solubility, ERG could be dissolved in pure methanol or pure ethanol. However, the membranes of the liposomes directly ruptured in pure methanol or pure ethanol, and a release medium was difficult to meet the “sink” condition of ERG. Therefore, the in vitro release of ERG was not investigated in the experiment. […] Therefore, the in vitro release of GEF drug under different pH conditions was investigated in the experiment. […] Calculation was carried out according to the following formula: Cumulative release percentage Q (%)=(c1×V0+Σn=1^t-1Cv)/M0×100%
In the experiment, the in vitro release of GEF drug under different pH conditions was investigated. […] For specific operation, please refer to “5.7 Release Rate” in Part II in details.

Take `CCCCCCCCCCCCCCCCCCN1/C(=C/C=C/C=C/C=C/C2=[N+](CCCCCCCCCCCCCCCCCC)c3ccccc3C2(C)C)C(C)(C)c2ccccc21.[I-]` [DiR raw medicine]: the “fluorescence accumulation in the tumor site” value in data set [1] was “not accumulated in the tumor site”.
In the data set with PC-9 cells (ERG 40 μM), `CC(C)[C@@H](C)/C=C/[C@@H](C)[C@H]1CC[C@H]2C3=CC=C4C[C@@H](O)CC[C@]4(C)[C@H]3CC[C@]12C` [ERG, ergosterol] came in with a G2/M phase fraction of 13.58±1.80%. Also, the S phase fraction with PC-9 cells (ERG 40 μM, ERG+GEF 40+5 μM) is reported as 26.93±2.02%; in the data set on A549 cells (ERG 20 μM), 32.05±2.27%.
As to `COc1cc2ncnc(Nc3ccc(F)c(Cl)c3)c2cc1OCCCN1CCOCC1` [GEF, gefitinib], in data set [2] (compared with the model control group), the average tumor weight entry is “highly significant difference”. Further, the tumor volume change result in data set [2] (course over 15 days of administration) is reported as “rapid growth trend after the 9th day of administration”. The G0/G1 phase fraction in the data set with PC-9 cells (GEF 5 μM, ERG+GEF 40+5 μM) was found to be 78.35±1.58%; with A549 cells (GEF 20 μM, combination of two drugs) it was 72.60±0.81%. Further, the “cumulative release percentage of GEF” value in data set [3] (pH 6.4 40% methanol-containing phosphate buffer, 24 h) was 98.91% and 99.12%; in data set [3] (pH 7.4 40% methanol-containing phosphate buffer, within 24 h) it was 76.91% and 81.10%. For the same molecule, the release model fitting result is recorded as “conforms to the first-order kinetic equation” in data set [3] (pH 6.4 release medium (FIG. 12)), “more in line with the first-order model” in data set [3] (pH 6.4 release medium (FIG. 25; freeze-dried powder first 4 h)), “closer to the Higuchi equation” in data set [3] (pH 7.4 release medium (FIG. 12)) and “more in line with the Higuchi model” in data set [3] (pH 7.4 release medium (FIG. 25; freeze-dried powder first 4 h)). In addition, the “fitting correlation coefficient of the first-order kinetic equation” value in data set [3] (pH 7.4 release medium) is recorded as 0.9952.
